Measured values reported in patent publication US4871528A, “Pharmaceutical compositions having antineoplastic activity” (Boehringer Biochemia Robin SpA, priority 1986, dated 1989).
In brackets after ≈: the same amount, converted by molar mass. Where two headings read alike, the source gives them in different places.

Key:
[1] = system: human HT-29 cells (colon carcinoma); experiment: In vitro activity of GSH and methotrexate on human HT-29 cells; assay type: cell-based; conditions: MTX 24 h, read-out: concentration causing 50% of cell death
Description: (5) In vitro activity of GSH and methotrexate (MTX) on human HT-29 cells (colon carcinoma). Human HT-29 cells (colon carcinoma) were used; the cells were pre-treated with GSH at the concentrations of 20 and 40 mg/ml and then exposed to MTX at the concentrations of 0.05, 0.1, 0.5 and 1 mg/ml for 24 h. The concentrations causing 50% of cell death turned out to be 0.12 mg/ml in the absence of GSH and about 0.04-0.06 mg/ml in the presence of GSH. The cells were cultivated in RPMI 1640 medium+10% of fetal calf serum.

[2] = system: anthracycline (doxorubicin) induced myocardiotoxicity; experiment: Protective effect of glutathione on doxorubicin induced myocardiotoxicity in rats; assay type: in vivo, Sprague Dawley rats; conditions: doxorubicin 3 mg/kg i.v. and/or GSH i.v. 30 minutes before, every 7 days, 4 times; 8 weeks
Description: Twenty-four Sprague Dawley rats, weighing 150-200 g, fed with standard diet and water "ad libitum", were randomized in 4 groups (A,B,C,D) 6 animals each.
Six animals were treated i.v. in the morning (10 am.) with […]) dissolved in normal saline (total injected volume 1 ml/kg). After 30 minutes, the same animals were treated i.v. with doxorubicin (3 mg/kg) dissolved in normal saline (total injected volume 1 ml/kg).
The treatment has been then repeated after 7 days, for 4 consecutive times as a whole.
Six animals were treated similarly to group A, except that glutathione was omitted and substituted with normal saline only.
Six animals were treated similarly to group A, except that doxorubicin was substituted with normal saline only.
Six animals were treated similarly to group A except that both drugs were substituted with normal saline.
The day of the first administration was defined "zero day" and all the animals were killed after 8 weeks from the start of the experiment.
During the experiment, starting from the zero time, all the animals were evaluated weekly for body weight increase, electrocardiographic intervals Q-T and S-T.
After the 8-week experiment, the necroscopic examination allowed to evaluate for each animal the degree of myocardial lesions expressed as an average of vacuolate cells for 10 observation fields at the optical microscope (200 x).

[3] = system: P388 leukemia; assay type: in vivo
Description: In the Table 1, the results obtained in CD2F1 mice i.p. treated at the day 0 with […] P388 leukemia cells and treated. i.p. at the day 1 with doxorubicin (DX) (7.5 mg/kg) and/or with GSH (333 mg/mg doxorubicin) are reported.
The GSH was administered 30 min. before DX.
The experiment of the combination GSH+DX was repeated in 2 groups of animals.
TMS means mean survival time in days, T/C % is a percent value of the response of drug treated animals in comparison with the control, taken as 100.
TOX means the number of treated animals died before the control animals. LTS is the number of animals survived at long term (2 months at least).
It should be stressed that the test used an experimental model, the P388 leukemia, characterized by an exclusively intraperitoneal tumor growth, i.e. a growth in the cavity wherein the insulation of the tumoral cells has been carried out.

[4] = system: P388 leukemia; experiment: Effect of GSH (i.v.) at different doxorubicin dosages (i.p.) on P388 leukemia in mice (Table 2); assay type: in vivo; conditions: for LTS >60 days / T/C % / TOX: in combination GSH 1500 mg/kg i.v.; for TMS: in combination GSH 1500 mg/kg i.v. 30' before
Description: The experimental conditions are similar to that of the previous test.
In these tests, the glutathione has been administered i.v., 30' before of the optional i.p. administration of anthracycline, doxorubicin.
The GSH treated animals received an equal amount of drug (1500 mg/kg) whereas the doxorubicin treated animals received i.p. scalar amounts of anthracycline. The animals consecutively treated with GSH and DX received the two drugs in the ratios of 100, 125, 150 and 200 mg of GSH per mg of DX.

[5] = system: P388 leukemia; experiment: GSH and Doxorubicin effect on P388 leukemia in CD2F1 mice (Table 3); assay type: in vivo; conditions: GSH 375 mg/kg i.v. and/or DX 7,5 mg/kg i.p. (GSH/DX 50)
Description: (§1) The experiments were carried out in a similar way to the experimental scheme of the previous tests 2 and 3. The glutathione was administered i.v. 30, before of doxorubicin. In the tests, whose experimental data are reported in the Tables 3 and 4, the doxorubicin is administered i.p. at a sub-optimal dose level (for the used treatment schedule), in order to evidentiate the synergic effect of the glutathione treatment.
In the test of Table 3 wherein P388 leukemic cells were inoculated, variable dosages of glutathione were used, with respect to the fixed dose of DX (7.5 mg/kg) so as to provide GSH/DX ratios respectively of 20 and 50 mg of GSH per mg of DX.

[6] = system: P388/DX resistant leukemic cells; experiment: Effect of GSH and doxorubicin on DX-resistant P388/DX leukemia in CD2F1 mice (Table 4); assay type: in vivo
Description: as §1
In the case of inoculation of P388/DX resistant leukemic cells an intermediate dose of glutathione was administered, corresponding to GSH/DX ratio of 25 mg/mg (total dose of GSH 187.5).

[7] = system: P388 leukemia; experiment: Effect of GSH (i.v.) at different doxorubicin dosages (i.p.) on P388 leukemia in mice (Table 2); assay type: in vivo; conditions: DX 12,5 mg/kg i.p.
[8] = system: advanced and relapsing ovarian tumor; experiment: high-dose cis-platinum+GSH in a patient with advanced and relapsing ovarian tumor (Example 3A); assay type: in vivo, human; conditions: in combination with glutathione
Description: However, in the therapeutical practice, the treatment is usually interrupted after 2 or 3 cycles (400 mg/m^2 or 600 mg/m^2) because of the onset of serious side-effects, which can even be fatal.
A patient having an advanced and relapsing ovarian tumor previously treated with cis-platinum, was treated with a combination of cis-platinum+GSH every four weeks. Cis-platinum was administered at a weekly dosage of 200 mg/m^2 (40 mg/m^2 i.v. in normal saline at 1-5 days) for five weeks; GSH was administered i.v. at a dosage of 35 mg/ mg of cis-platinum in normal saline, 30 minutes before administration of cis-platinum. The week of administration (5 administrations) was followed by three weeks of rest, and then the cycle was repeated, and so on, for a total of 5 cycles of administration extending over 17 weeks (5 weeks of actual treatment and 12 weeks (3 weeks X 4) of rest intervals).

[9] = system: advanced and relapsing ovarian tumor; conditions: administered without glutathione; severe side-effects; cited from earlier work
[10] = day 1 i.p.: DX 7.5 mg/kg and/or GSH 333 mg/mg doxorubicin
[11] = GSH 187,5 mg/kg i.v. and/or DX 7,5 mg/kg i.p.
[12] = in combination GSH 1500 mg/kg i.v.

Molecule `CN(Cc1cnc2nc(N)nc(N)c2n1)c1ccc(C(=O)N[C@@H](CCC(=O)O)C(=O)O)cc1` [MTX, methotrexate] has an IC50 ([1]; in the absence of GSH) of 120 µg/mL (≈ 264 µM) and an IC50 ([1]; in the presence of GSH (pre-treated at 20 and 40 mg/ml)) of 40 to 60 µg/mL.
In the case of `COc1cccc2c1C(=O)c1c(O)c3c(c(O)c1C2=O)C[C@@](O)(C(=O)CO)C[C@@H]3O[C@H]1C[C@H](N)[C@H](O)[C@H](C)O1` [DX, doxorubicin], the “body growth curve, ECG recording (Q-T, S-T), number of vacuolate myocardial cells” value [2] is reported as “toxic and cardiological effects”, the “LTS (number of animals survived at long term, 2 months at least)” value [3, 10] is reported as 0/10 and the T/C % [3, 10] is reported as 140%. The “TOX (number of treated animals died before the control animals)” value [3, 10] was 0/10, the “TMS (mean survival time)” value ([3]; day 1 i.p.: DX 7.5 mg/kg and/or GSH 333 mg/mg doxorubicin 30 min. before DX) was 16 days and the “LTS >60 days” value ([4]; DX 10 mg/kg i.p.) was 0/8. The T/C % ([4]; DX 10 mg/kg i.p.) was 170%, the TOX ([4]; DX 10 mg/kg i.p.) was 0/8 and the TMS ([4]; DX 10 mg/kg i.p.) was 17 days. For the same molecule, the “LTS >60 days” value ([4]; DX 15 mg/kg i.p.) was 0/8, the T/C % ([4]; DX 15 mg/kg i.p.) was 60% and the TOX ([4]; DX 15 mg/kg i.p.) was 8/8. For the same molecule, the TMS ([4]; DX 15 mg/kg i.p.) was 6 days, the “LTS >60 days” value ([4]; DX 7,5 mg/kg i.p.) was 0/8 and the T/C % ([4]; DX 7,5 mg/kg i.p.) was 155%. The TOX ([4]; DX 7,5 mg/kg i.p.) was 0/8, the TMS ([4]; DX 7,5 mg/kg i.p.) was 15,5 days and the “LTS >60 days” value ([4]; DX 12,5 mg/kg i.p.) was 0/8. For the same molecule, the LTS [5] was 0/10, the T/C % [5] was 163% and the TMS [5] was 16,7 days. The TOX [5] was 0/10, the LTS [6, 11] was 0/10 and the T/C % [6, 11] was 118%. The TOX [6, 11] was 0/10, the TMS ([6]; GSH 187,5 mg/kg i.v. and/or DX 7,5 mg/kg i.p. (GSH/DX 25 mg/mg)) was 11,4 days and the T/C % [7, 12] was 120%. The TOX [7, 12] was 4/8 and the TMS ([7]; in combination GSH 1500 mg/kg i.v. 30' before) was 12 days.
For `N.N.[Cl][Pt][Cl]` [CDDP, cis-diamine-dichloroplatinum], the “maximum applicable dosage of cis-platinum” value [8] is listed as “about 1000 mg/m^2” and the “maximum dosage of cis-platinum” value [9] is listed as 400-600 mg/m^2.
